Entries after “also recorded” stand apart in the source; their conditions may differ. Read-outs that look alike come from different tables or passages of the source.
Experiments:
[1] = tested on: non-diabetic male Wistar rats; assay: Blood glucose levels after intrajejunal injection in fasted non-diabetic rats; assay type: in vivo, rat; conditions: for effect on blood glucose levels: 100 μL
Description: About 250 μL of blood was collected at regular intervals in order to determine the blood glucose level. The obtained values, plotted as mean percent change±standard error in blood glucose levels with respect to initial reading (n=3) versus time, are shown in FIG. 7.
About 250 μL of blood was collected at regular intervals in order to determine the blood glucose level. The obtained values, plotted as mean percent change±standard error in blood glucose levels with respect to initial reading (n=3) versus time, are shown in FIG. 8.
The obtained values, plotted as mean percent change±standard error in blood glucose levels with respect to initial reading (n=4) versus time, are shown in FIG. 9.

[2] = Physical form of choline-based ionic liquids at room temperature; assay type: physicochemical
Description: Several ionic liquids comprising choline as a cation and various anions were synthesized. […] For anions not miscible with the aqueous choline bicarbonate solution, a co-solvent, such as ethanol, was added until a homogenous mixture formed. The mixture was stirred at room temperature until CO2 evolution ceased. Solvent was removed by rotary evaporation at 60° C. for 20 minutes, and each product was dried in a vacuum oven for 48 hours at 60° C.

[3] = Liraglutide serum concentration after intrajejunal injection of liraglutide with choline-based ionic liquid; conditions: for Peak 5-Hour Liraglutide Concentration: non-diabetic rats
Description: (§1) Adult non-diabetic male Wistar rats were fasted overnight but given free access to water and subsequently dosed via intrajejunal injection with liraglutide and choline-hydrocinnamic acid. A fasting control group was dosed with a saline solution via intrajejunal injection. About 250 L of blood was collected at hourly intervals in order to determine the liraglutide serum concentration.
(§2) Adult non-diabetic male Wistar rats were fasted overnight but given free access to water and subsequently dosed via intrajejunal injection with liraglutide and one of various choline-based ionic liquids.

[4] = male, Wistar, rat, in vivo
Description: as §1, §2

[5] = in the presence of well-known permeation enhancers; cited from earlier work
[6] = tested on: non-diabetic male Wistar rats; assay: 30-day daily oral gavage safety study
Description: Adult non-diabetic male Wistar rats were dosed daily for 30 days via oral gavage with either 25 or 100 uL Choline-Cinnamic Acid 1:1.5. Two placebo groups received either 25 or 100 uL saline. Animals were observed daily for general health and weight recorded. On day 31, all animals were euthanized, and tissue, blood and plasma samples collected for analysis.

[7] = tested on: Streptozotocin-induced diabetic male Wistar rats; assay: Plasma insulin after administration in rat model of Type 1 diabetes; assay type: in vivo; conditions: subcutaneous injection, oral liquid gavage or jejunum catheter
Description: A fasting control group was not treated. About 250 μL of blood was collected at regular intervals in order to determine the insulin serum concentration.

[8] = tested on: non-diabetic male Wistar rats; assay: Glucose excretion in urine after intrajejunal injection; assay type: in vivo, rat; conditions: intrajejunal injection at varying doses, urine from bladder 1.5 hours post-injection
Description: At 1.5 hours post-injection, urine was sampled from the bladder to determine glucose concentration. The obtained glucose concentration values, plotted as percent change in blood glucose levels with respect to initial reading versus dose level and change in glucose concentration in the urine collected from the bladder versus dose level (n=1), are shown in FIG. 13.

[9] = tested on: Streptozocin-induced diabetic male Wistar rats; assay: Blood glucose levels after oral liquid gavage in rat model of Type 1 diabetes; assay type: in vivo; conditions: Type 1 diabetes model rats
Description: About 250 μL of blood was collected at regular intervals in order to determine the blood glucose level. The obtained values, plotted as mean percent change±standard error in blood glucose levels with respect to initial reading (n=4) versus time, are shown in FIG. 11.

[10] = tested on: non-diabetic male Wistar rats; assay: Blood glucose levels after subcutaneous injection or liquid gavage in fasted non-diabetic rats; assay type: in vivo, rat
Description: A fasting control group was dosed orally with a saline solution. About 250 μL of blood was collected at regular intervals in order to determine the blood glucose level. The obtained values, plotted as mean percent change±standard error in blood glucose levels with respect to initial reading (n=4) versus time, are shown in FIG. 10. […] About 250 μL of blood was collected at regular intervals in order to determine the blood glucose level. The obtained values, plotted as mean percent change±standard error in blood glucose levels with respect to initial reading (n=4) versus time, are shown in FIG. 11.

[11] = cation:anion 1:1, room temperature
[12] = cation:anion 1:2, room temperature
[13] = cation:anion 2:1, room temperature

Compound | Physical Form (Ratios Listed as Cation:Anion) [2, 11] | Physical Form (Ratios Listed as Cation:Anion) [2, 12] | Physical Form (Ratios Listed as Cation:Anion) [2, 13] | also measured
CCCCCCCC(=O)O [Octanoic Acid] | Liquid | Solid | – | effect on blood glucose levels [1]: neither choline-octanoic acid nor choline-octenoic acid decreased blood glucose levels
Hydrocinnamic Acid (3-Phenylpropionic Acid) | Liquid at 1:1, 1:2 | Liquid at 1:1, 1:2 | – | blood concentration of liraglutide relative to those reported in the literature ([3]; liraglutide with choline-hydrocinnamic acid vs Buckley et al.): approximately 4,400 fold; liraglutide serum concentration ([3]; liraglutide with choline-hydrocinnamic acid, intrajejunal injection, rats): surprisingly high serum concentration; Peak 5-Hour Liraglutide Concentration ([3]; liraglutide with the ionic liquid, intrajejunal injection, listed as Choline-Hydrocinnamic acid): 2086 ng/mL; Peak 5-Hour Liraglutide Concentration ([3]; liraglutide with the ionic liquid, intrajejunal injection, listed as choline-hydrocinnamic acid): greater than 2000 ng/mL; fold improvement of liraglutide concentration over choline-citronellic acid ([3]; liraglutide with the ionic liquid, intrajejunal injection, rats): 500 fold
CCCCC/C=C\C/C=C\CCCCCCCC(=O)O [Linoleic Acid] | Solid | Liquid | – | Peak 5-Hour Liraglutide Concentration [4]: 44 ng/mL; fold improvement of liraglutide concentration over choline-citronellic acid [4]: about 10 fold
CCCCCCCCCCCCCCCC(=O)N[C@@H](CCC(=O)NCCCC[C@H](NC(=O)[C@H](C)NC(=O)[C@H](C)NC(=O)[C@H](CCC(N)=O)NC(=O)CNC(=O)[C@H](CCC(=O)O)NC(=O)[C@H](CC(C)C)NC(=O)[C@H](Cc1ccc(O)cc1)NC(=O)[C@H](CO)NC(=O)[C@H](CO)NC(=O)[C@@H](NC(=O)[C@H](CC(=O)O)NC(=O)[C@H](CO)NC(=O)[C@@H](NC(=O)[C@H](Cc1ccccc1)NC(=O)[C@@H](NC(=O)CNC(=O)[C@H](CCC(=O)O)NC(=O)[C@H](C)NC(=O)[C@@H](N)Cc1cnc[nH]1)[C@@H](C)O)[C@@H](C)O)C(C)C)C(=O)N[C@@H](CCC(=O)O)C(=O)N[C@@H](Cc1ccccc1)C(=O)N[C@H](C(=O)N[C@@H](C)C(=O)N[C@@H](Cc1c[nH]c2ccccc12)C(=O)N[C@@H](CC(C)C)C(=O)N[C@H](C(=O)N[C@@H](CCCNC(=N)N)C(=O)NCC(=O)N[C@@H](CCCNC(=N)N)C(=O)NCC(=O)O)C(C)C)[C@@H](C)CC)C(=O)O [liraglutide] | – | – | – | absorption of liraglutide [5]: only minute absorption
CC(C)=CCCC(C)CC(=O)O (stereo not shown) [citronellic acid alone, citronellic acid, reference compound] | – | – | – | blood glucose levels, % of starting levels ([1]; 38 μL dose (acid content of 50 μL ionic liquid)): about 30%
O=C(O)C=Cc1ccccc1 [Cinnamic Acid] | Liquid at 1:1, 1:1.5, 1:2 | Liquid at 1:1, 1:1.5, 1:2 | – | Physical Form (Ratios Listed as Cation:Anion) ([2]; cation:anion 1:1.5, room temperature): Liquid at 1:1, 1:1.5, 1:2; appearance and physical form ([2]; room temperature, ratio as in label): viscous yellow liquids; plasma indicators of organ toxicity vs placebo ([6]; 25 or 100 uL daily oral gavage for 30 days, rats): not statistically significantly different; IHC staining of tight junction proteins Claudin-1 and Occludin of GI tract tissues vs placebo ([6]; rat, in vivo, po): no difference; blood cell counts vs placebo ([6]; rat, in vivo, po): not statistically significantly different; histological examination (H&E) of organs and GI tract tissues vs saline placebo ([6]; rat, in vivo, po): no significant difference
CC(C)=CCCC(C)CC(=O)O (stereo not shown) [Citronellic Acid] | Liquid at 2:1, 1:1, 1:2 | Liquid at 2:1, 1:1, 1:2 | Liquid at 2:1, 1:1, 1:2 | insulin secretion (plasma insulin concentration) [7]: Stimulation of insulin secretion was observed; effect on blood glucose level ([1]; 10, 20, 50 and 100 μL): dropped in a dose-dependent manner; blood glucose levels, % of starting levels ([1]; 50 μL dose): about 50%; effect on blood glucose levels [1]: pronounced decrease in blood glucose levels; drop in blood glucose level from baseline ([1]; 100 μL dose): about 70%; glucose concentration in the urine [8]: increasing glucose concentration in the urine; effect on blood glucose levels [9]: continued to drop; effect on blood glucose levels ([10]; oral liquid gavage, listed as choline-citronellic acid): reduced blood glucose levels; also recorded: dropped and recovered slowly with time; effect on blood glucose levels ([10]; subcutaneous injection): reduced blood glucose levels
O=C(O)/C=C/c1ccc(O)c(O)c1 [Caffeic Acid] | Solid at 1:1 | – | – | –
Choline-Octenoic acid | – | – | – | Peak 5-Hour Liraglutide Concentration ([3]; liraglutide with the ionic liquid, intrajejunal injection): 201 ng/mL; effect on blood glucose levels [1]: neither choline-octanoic acid nor choline-octenoic acid decreased blood glucose levels
CC(=O)O [Acetic Acid] | Liquid at 2:1, 1:1, 1:2 | Liquid at 2:1, 1:1, 1:2 | Liquid at 2:1, 1:1, 1:2 | –
O=C(O)C1CC2C=CC1C2 (stereo not shown) [5-Norbornene-2-carboxylic Acid] | Solid at 1:1 | – | – | –
O=C1O[C@H]([C@@H](O)CO)C(O)=C1O [L-Ascorbic Acid] | Solid at 1:1 | – | – | –
CCCCC/C=C/C(=O)O [Trans-2-Octenoic Acid] | Liquid at 1:1, 1:2 | Liquid at 1:1, 1:2 | – | –
O=C(O)CCCCCC(=O)O [Pimelic Acid] | Liquid at 2:1, 1:1 | – | Liquid at 2:1, 1:1 | –
CCCCCCCCCCC(=O)O [Undecanoic Acid] | Solid at 1:1 | – | – | –
CCC(=O)O [Propionic Acid] | Liquid at 2:1, 1:1 | – | Liquid at 2:1, 1:1 | –
O=C(O)CO [Glycolic Acid] | Liquid at 2:1, 1:1 | – | Liquid at 2:1, 1:1 | –
CC(C)=CCC/C(C)=C/C(=O)O [Geranic Acid] | Liquid at 1:1, 1:2 | Liquid at 1:1, 1:2 | – | –
O=C(O)CCC(=O)C(=O)O [α-Ketoglutaric Acid] | – | – | Liquid at 2:1 | –
C=CCCCCCC(=O)O [Trans-7-Octenoic Acid] | Liquid at 1:1, 1:2 | Liquid at 1:1, 1:2 | – | –

Reference: patent US20240130994A1, “IONIC LIQUID FORMULATIONS FOR TREATING DIABETES” (i2O Therapeutics, Inc., priority 2020, published 2024)
